From ChEMBL document CHEMBL4732221, “Design, synthesis and bioactivity evaluation of novel pyrazole linked phenylthiazole derivatives in context of antibacterial activity” (Bioorg Med Chem Lett, 2021) come the findings set out here.

The structures appear in SMILES notation. Values after ≈ are worked out from the molar mass of the structure shown. Active and inactive are the calls of the source. The calls are words filed in the database; no cut-off is given here.

One may read the inhibition as the change of the read-out against control, counted positive when it falls. What is called MIC is the least concentration at which growth counts as inhibited.

Common to all, as to format: functional
Assay [1] concerns Cryptococcus neoformans. As to the kind of experiment: Antifungal activity against Cryptococcus neoformans var. grubii ATCC 208821 assessed as growth inhibition at 32 ug/ml after 36 hrs by monochromator plate assay relative to control. Particulars: dose 32.0 µg/ml.
Assay [2] concerns Pseudomonas aeruginosa. As to the kind of experiment: Antibacterial activity against Pseudomonas aeruginosa ATCC 27853 assessed as growth inhibition after 18 hrs by monochromator plate assay.
Assay [3] deals with Klebsiella pneumoniae. As to the kind of experiment: Antibacterial activity against Klebsiella pneumoniae ATCC 700603 assessed as growth inhibition after 18 hrs by monochromator plate assay.
Assay [4] relates to Klebsiella pneumoniae. As to the kind of experiment: Antibacterial activity against Klebsiella pneumoniae ATCC 700603 assessed as growth inhibition at 32 ug/ml after 18 hrs by microplate reader assay relative to control. Particulars: for inhibition: dose 32.0 µg/ml.
The test system of assay [5] is Candida albicans. As to the kind of experiment: Antifungal activity against Candida albicans ATCC 90028 assessed as growth inhibition at 32 ug/ml after 36 hrs by monochromator plate assay relative to control. Particulars: for inhibition: dose 32.0 µg/ml.
Assay [6] relates to Acinetobacter baumannii. As to the kind of experiment: Antibacterial activity against Acinetobacter baumannii ATCC 19606 assessed as growth inhibition after 18 hrs by monochromator plate assay.
The subject of assay [7] is Candida albicans. As to the kind of experiment: Antifungal activity against Candida albicans ATCC 90028 assessed as growth inhibition after 36 hrs by monochromator plate assay.
In assay [8] the test system is Escherichia coli. As to the kind of experiment: Antibacterial activity against Escherichia coli ATCC 25922 assessed as growth inhibition at 32 ug/ml after 18 hrs by monochromator plate assay relative to control. Particulars: for inhibition: dose 32.0 µg/ml.
For assay [9], the system named is Acinetobacter baumannii. As to the kind of experiment: Antibacterial activity against Acinetobacter baumannii ATCC 19606 assessed as growth inhibition at 32 ug/ml after 18 hrs by monochromator plate assay relative to control. Particulars: for inhibition: dose 32.0 µg/ml.
Assay [10] deals with Pseudomonas aeruginosa. As to the kind of experiment: Antibacterial activity against Pseudomonas aeruginosa ATCC 27853 assessed as growth inhibition at 32 ug/ml after 18 hrs by monochromator plate assay relative to control. Conditions: for inhibition: dose 32.0 µg/ml.
The test system of assay [11] is Cryptococcus neoformans. As to the kind of experiment: Antifungal activity against Cryptococcus neoformans var. grubii ATCC 208821) assessed as growth inhibition after 36 hrs by monochromator plate assay relative to control.
The test system of assay [12] is Escherichia coli. As to the kind of experiment: Antibacterial activity against Escherichia coli ATCC 25922 assessed as growth inhibition after 18 hrs by monochromator plate assay.
For assay [13], the system named is Staphylococcus aureus. As to the kind of experiment: Antibacterial activity against methicillin-resistant Staphylococcus aureus ATCC 43300 assessed as growth inhibition at 32 ug/ml after 18 hrs by monochromator plate assay relative to control.
Assay [14] has as its system Staphylococcus aureus. As to the kind of experiment: Antibacterial activity against methicillin-resistant Staphylococcus aureus ATCC 43300 assessed as growth inhibition after 18 hrs by monochromator plate assay.

In the case of `Cc1nc(-c2ccc(-c3ccccc3)cc2)sc1-c1cc(C(=O)NNc2ccccc2)n[nH]1`, the inhibition entry in the assay on Cryptococcus neoformans [1], in the assay with Klebsiella pneumoniae [4], in the assay with Escherichia coli [8] and with Pseudomonas aeruginosa [10] was “inactive” in each case. In addition, the MIC entry in the assay with Pseudomonas aeruginosa [2], in the assay on Klebsiella pneumoniae [3], in the assay with Cryptococcus neoformans [11] and with Escherichia coli [12] was “inactive” in each case. In addition, the inhibition at 32 µg/mL in the assay on Candida albicans [5] worked out at 17.8%; in the assay on Acinetobacter baumannii [9] it was 5.5%; in the assay with Staphylococcus aureus [13], 8.2%. In addition, the MIC in the assay with Acinetobacter baumannii [6], with Candida albicans [7] and in the assay on Staphylococcus aureus [14] was above 32 µg/mL throughout.

`Cc1nc(-c2ccc(I)cc2)sc1-c1cc(C(=O)NN2CCOCC2)n[nH]1`: the inhibition entry in the assay with Cryptococcus neoformans [1] and with Escherichia coli [8] was “inactive” each time. Moreover, the MIC in the assay with Pseudomonas aeruginosa [2], in the assay with Klebsiella pneumoniae [3], in the assay on Acinetobacter baumannii [6], with Candida albicans [7] and in the assay with Staphylococcus aureus [14] was above 32 µg/mL each time. For the same compound, the inhibition at 32 µg/mL with Klebsiella pneumoniae [4] was 8.4%; with Candida albicans [5] it was 3.5%; with Acinetobacter baumannii [9], 2.8%; in the assay with Pseudomonas aeruginosa [10], 10.1%; in the assay on Staphylococcus aureus [13], 15.7%. Moreover, the MIC entry with Cryptococcus neoformans [11] and in the assay with Escherichia coli [12] was “inactive” each time.

Turning to `Cc1nc(-c2ccc(-c3ccccc3)cc2)sc1-c1cc(C(=O)Nc2ccc(OC(F)F)cc2)n[nH]1`, the inhibition entry with Cryptococcus neoformans [1], with Escherichia coli [8] and in the assay with Acinetobacter baumannii [9] was “inactive” throughout. For the same compound, the MIC in the assay with Pseudomonas aeruginosa [2], in the assay with Klebsiella pneumoniae [3], in the assay with Candida albicans [7] and in the assay on Staphylococcus aureus [14] was above 32 µg/mL in each case. Moreover, the inhibition at 32 µg/mL turned out to be 5% in the assay with Klebsiella pneumoniae [4], 4.7% in the assay on Candida albicans [5], 7.1% in the assay with Pseudomonas aeruginosa [10] and 3.6% in the assay on Staphylococcus aureus [13]. In addition, the MIC result with Acinetobacter baumannii [6], in the assay with Cryptococcus neoformans [11] and with Escherichia coli [12] was “inactive” each time.

Consider `CN[C@H](CC(C)C)C(=O)N[C@H]1C(=O)N[C@@H](CC(N)=O)C(=O)N[C@H]2C(=O)N[C@H]3C(=O)N[C@H](C(=O)N[C@H](C(=O)O)c4cc(O)cc(O)c4-c4cc3ccc4O)[C@H](O)c3ccc(c(Cl)c3)Oc3cc2cc(c3O[C@@H]2O[C@H](CO)[C@@H](O)[C@H](O)[C@H]2O[C@H]2C[C@](C)(N)[C@H](O)[C@H](C)O2)Oc2ccc(cc2Cl)[C@H]1O`, for which the inhibition result in the assay with Staphylococcus aureus [13] (dose 32.0 µg/ml) is “inactive”.

Regarding `CCCCc1ccc(NC(=O)c2cc(-c3sc(-c4ccc(-c5ccccc5)cc4)nc3C)[nH]n2)cc1`, the inhibition result in the assay on Cryptococcus neoformans [1] and in the assay on Escherichia coli [8] was “inactive” throughout. In addition, the MIC in the assay on Pseudomonas aeruginosa [2], in the assay on Klebsiella pneumoniae [3], in the assay on Acinetobacter baumannii [6], with Candida albicans [7] and in the assay on Staphylococcus aureus [14] was above 32 µg/mL in each case. Besides, the inhibition at 32 µg/mL in the assay with Klebsiella pneumoniae [4] worked out at 3.3%; in the assay with Candida albicans [5], 13.5%; with Acinetobacter baumannii [9], 4.1%; with Pseudomonas aeruginosa [10], 5.6%; in the assay with Staphylococcus aureus [13] it was 9.5%. The MIC result in the assay with Cryptococcus neoformans [11] and with Escherichia coli [12] was “inactive” in each case.

Turning to `Cc1nc(-c2ccc(-c3ccccc3)cc2)sc1-c1cc(C(=O)Nc2ccc(C(C)(C)C)cc2)n[nH]1`, the inhibition result in the assay with Cryptococcus neoformans [1] and in the assay with Escherichia coli [8] was “inactive” in each case. For the same compound, the MIC with Pseudomonas aeruginosa [2], in the assay on Klebsiella pneumoniae [3], in the assay with Acinetobacter baumannii [6], in the assay on Candida albicans [7] and in the assay on Staphylococcus aureus [14] was above 32 µg/mL throughout. Also, the inhibition at 32 µg/mL came out at 5.2% with Klebsiella pneumoniae [4]; 5.2% in the assay on Candida albicans [5]; 3% in the assay with Acinetobacter baumannii [9]; 2.2% in the assay on Pseudomonas aeruginosa [10]; 13.2% with Staphylococcus aureus [13]. Also, the MIC entry in the assay with Cryptococcus neoformans [11] and in the assay on Escherichia coli [12] was “inactive” throughout.

On to `Cc1nc(-c2ccc(I)cc2)sc1-c1cc(C(=O)O)n[nH]1`, for which the inhibition result in the assay on Cryptococcus neoformans [1] and in the assay on Pseudomonas aeruginosa [10] was “inactive” each time. Also, the MIC result in the assay with Pseudomonas aeruginosa [2] and in the assay on Cryptococcus neoformans [11] was “inactive” in each case. Also, the MIC in the assay on Klebsiella pneumoniae [3], with Acinetobacter baumannii [6], with Candida albicans [7], with Escherichia coli [12] and in the assay with Staphylococcus aureus [14] was above 32 µg/mL in each case. In addition, the inhibition at 32 µg/mL with Klebsiella pneumoniae [4] was determined as 12%; with Candida albicans [5] it was 25.5%; in the assay on Escherichia coli [8] it was 27.5%; in the assay on Acinetobacter baumannii [9] it was 6.6%; with Staphylococcus aureus [13], 31.8%.

Take `Cc1nc(-c2ccc(I)cc2)sc1-c1cc(C(=O)NC2CCCCC2)n[nH]1`: the inhibition entry with Cryptococcus neoformans [1], in the assay with Escherichia coli [8] and with Acinetobacter baumannii [9] was “inactive” each time. The MIC with Pseudomonas aeruginosa [2], with Klebsiella pneumoniae [3], in the assay with Candida albicans [7] and with Staphylococcus aureus [14] was above 32 µg/mL throughout. The inhibition at 32 µg/mL turned out to be 6.9% in the assay on Klebsiella pneumoniae [4], 40.5% with Candida albicans [5], 17.8% with Pseudomonas aeruginosa [10] and 12.9% in the assay on Staphylococcus aureus [13]. The MIC entry in the assay on Acinetobacter baumannii [6], with Cryptococcus neoformans [11] and in the assay on Escherichia coli [12] was “inactive” each time.

For the compound `Cc1nc(-c2ccc(-c3ccccc3)cc2)sc1-c1cc(C(=O)Nc2ccc3c(c2)OCO3)n[nH]1`, the inhibition result in the assay on Cryptococcus neoformans [1], in the assay on Escherichia coli [8] and in the assay with Acinetobacter baumannii [9] was “inactive” throughout. Also, the MIC with Pseudomonas aeruginosa [2], in the assay with Klebsiella pneumoniae [3], in the assay with Candida albicans [7] and in the assay on Staphylococcus aureus [14] was above 32 µg/mL throughout. Moreover, the inhibition at 32 µg/mL in the assay on Klebsiella pneumoniae [4] came to 7.5%; with Candida albicans [5], 5%; in the assay with Pseudomonas aeruginosa [10] it was 1.3%; in the assay on Staphylococcus aureus [13], 3.2%. The MIC result in the assay on Acinetobacter baumannii [6], in the assay with Cryptococcus neoformans [11] and in the assay on Escherichia coli [12] was “inactive” in each case.

For the compound `Cc1nc(-c2ccc(-c3ccccc3)cc2)sc1-c1cc(C(=O)NC2CCCCC2)n[nH]1`, the inhibition entry in the assay on Cryptococcus neoformans [1], with Candida albicans [5] and with Escherichia coli [8] was “inactive” throughout. Besides, the minimum inhibitory concentration (MIC) in the assay with Pseudomonas aeruginosa [2], with Klebsiella pneumoniae [3], in the assay on Acinetobacter baumannii [6] and in the assay with Staphylococcus aureus [14] was above 32 µg/mL in each case. The inhibition at 32 µg/mL with Klebsiella pneumoniae [4] was 6.9%; with Acinetobacter baumannii [9], 2.9%; with Pseudomonas aeruginosa [10], 6.6%; with Staphylococcus aureus [13] it was 84.9%. Besides, the MIC result in the assay on Candida albicans [7], in the assay on Cryptococcus neoformans [11] and in the assay on Escherichia coli [12] was “inactive” throughout.

Consider `Cc1nc(-c2ccc(-c3ccccc3)cc2)sc1-c1cc(C(=O)Nc2ccc(F)cc2)n[nH]1`, for which the inhibition entry with Cryptococcus neoformans [1] and with Escherichia coli [8] was “inactive” in each case. Besides, the MIC in the assay with Pseudomonas aeruginosa [2], in the assay on Klebsiella pneumoniae [3], in the assay with Acinetobacter baumannii [6], in the assay with Candida albicans [7] and in the assay on Staphylococcus aureus [14] was above 32 µg/mL each time. For the same compound, the inhibition at 32 µg/mL worked out at 4.4% in the assay on Klebsiella pneumoniae [4]; 19.6% in the assay on Candida albicans [5]; 3% in the assay with Acinetobacter baumannii [9]; 5.1% in the assay on Pseudomonas aeruginosa [10]; 15.1% with Staphylococcus aureus [13]. Further, the MIC entry in the assay with Cryptococcus neoformans [11] and in the assay with Escherichia coli [12] was “inactive” each time.

As to `Cc1nc(-c2ccc(-c3cccc4c3OCO4)cc2)sc1-c1cc(C(=O)NC2CCCCC2)n[nH]1`, the inhibition result in the assay with Cryptococcus neoformans [1], in the assay on Klebsiella pneumoniae [4], in the assay on Escherichia coli [8] and in the assay on Acinetobacter baumannii [9] was “inactive” in each case. Also, the MIC with Pseudomonas aeruginosa [2], with Candida albicans [7] and in the assay on Staphylococcus aureus [14] was above 32 µg/mL throughout. Besides, the MIC entry in the assay on Klebsiella pneumoniae [3], with Acinetobacter baumannii [6], in the assay on Cryptococcus neoformans [11] and in the assay with Escherichia coli [12] was “inactive” in each case. Further, the inhibition at 32 µg/mL in the assay on Candida albicans [5] worked out at 0.9%; with Pseudomonas aeruginosa [10] it was 6.2%; in the assay on Staphylococcus aureus [13], 41.2%.

Turning to `Cc1nc(-c2ccc(-c3ccccc3)cc2)sc1-c1cc(C(=O)NCC2CCCCC2)n[nH]1`, the inhibition entry in the assay on Cryptococcus neoformans [1], in the assay with Klebsiella pneumoniae [4], with Candida albicans [5], with Escherichia coli [8], in the assay with Acinetobacter baumannii [9] and with Pseudomonas aeruginosa [10] was “inactive” throughout. The MIC entry in the assay with Pseudomonas aeruginosa [2], in the assay on Klebsiella pneumoniae [3], with Acinetobacter baumannii [6], with Candida albicans [7], in the assay on Cryptococcus neoformans [11] and in the assay with Escherichia coli [12] was “inactive” throughout. Further, in the assay with Staphylococcus aureus [13], the inhibition at 32 µg/mL came out at 4.1%. Further, in the assay with Staphylococcus aureus [14], the minimal inhibitory concentration (MIC) is above 32 µg/mL.

On to `OC(Cn1cncn1)(Cn1cncn1)c1ccc(F)cc1F` [FLUCONAZOLE], for which the inhibition entry in the assay on Cryptococcus neoformans [1] and with Candida albicans [5] was “inactive” each time. Also, the figures for the minimal inhibitory concentration (MIC) with Candida albicans [7] and with Cryptococcus neoformans [11] were 0.125 µg/mL (≈ 0.408 µM) and 8 µg/mL (≈ 26.1 µM), respectively.
